Data as given in ChEMBL document CHEMBL1201862, “PubChem BioAssay data set” (2004).
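Five compound concentrations were applied to cells in 96-well plates for 48 hours; endpoints were derived by simple linear interpolation of the resulting dose-response curve. GI50 marks 50% less growth.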 Activity calls are given as the source filed them. No stated cut-off is given here; in the data, active = GI50 up to about 1.1 µM and inactive = higher.

How the values were obtained:
Assay in all cases: inhibition of tumour cell growth, NCI panel, 48 h
[1] = test system: SK-MEL-5
[2] = test system: OVCAR-5
[3] = test system: CAKI-1
[4] = test system: SF-295
[5] = test system: SK-MEL-28
[6] = test system: SNB-78
[7] = test system: HOP-92
[8] = test system: IGROV-1
[9] = test system: SK-MEL-2
[10] = test system: DLD-1
[11] = test system: SN12C
[12] = test system: Malme-3M
[13] = test system: M19-MEL
[14] = test system: U-251
[15] = test system: UACC-257
[16] = test system: DMS-114
[17] = test system: UACC-62
[18] = test system: OVCAR-3
[19] = test system: XF498
[20] = test system: HCC 2998
[21] = test system: NCI/ADR-RES
[22] = test system: NCI-H460
[23] = test system: SNB-75
[24] = test system: CCRF-CEM
[25] = test system: HOP-62
[26] = test system: OVCAR-4
[27] = test system: A549
[28] = test system: HCT-116
[29] = test system: HL-60
[30] = test system: HCT-15
[31] = test system: HT-29
[32] = test system: OVCAR-8
[33] = test system: KM-20L2
[34] = test system: NCI-H226
[35] = test system: NCI-H23
[36] = test system: SNB-19
[37] = test system: MOLT-4
[38] = test system: DMS-273
[39] = test system: SK-OV-3
[40] = test system: COLO 205
[41] = test system: HOP-18
[42] = test system: UO-31
[43] = test system: LOX IMVI
[44] = test system: K562
[45] = test system: SW-620
[46] = test system: RXF 393
[47] = test system: MCF7
[48] = test system: SF-539
[49] = test system: KM12
[50] = test system: A498
[51] = test system: RPMI-8226
[52] = test system: SF-268
[53] = test system: NCI-H522
[54] = test system: EKVX
[55] = test system: ACHN
[56] = test system: TK-10
[57] = test system: LXFL 529
[58] = test system: 786-0
[59] = test system: M14

**Q.** Which GI50 [1] does the source give for CC(=O)Oc1cc2c(cc1OC(C)=O)OCC(c1ccccc1)C2 (configuration not stated) here?
**A.** 17.3 µM (inactive)

**Q.** What about the GI50 [2] of the same compound?
**A.** 33.3 µM (inactive)

**Q.** What about the GI50 [3] of the same compound?
**A.** 16.4 µM (inactive)

**Q.** What about the GI50 [4] of the same compound?
**A.** 16.4 µM (inactive)

**Q.** And the GI50 [5]?
**A.** 31 µM (inactive)

**Q.** And the GI50 [6]?
**A.** 39.2 µM (inactive)

**Q.** And the GI50 [7]?
**A.** 9.23 µM (inactive)

**Q.** What about the GI50 [8] of the same compound?
**A.** 33.8 µM (inactive)

**Q.** What about the GI50 [9] of the same compound?
**A.** 27.4 µM (inactive)

**Q.** What about the GI50 [10] of the same compound?
**A.** 9.31 µM (inactive)

**Q.** What about the GI50 [11] of the same compound?
**A.** 26.4 µM (inactive)

**Q.** And the GI50 [12]?
**A.** 16.1 µM (inactive)

**Q.** And the GI50 [13]?
**A.** 14.9 µM (inactive)

**Q.** And the GI50 [14]?
**A.** 7.6 µM (inactive)

**Q.** And the GI50 [15]?
**A.** 14.1 µM (inactive)

**Q.** What about the GI50 [16] of the same compound?
**A.** 6.81 µM (inactive)

**Q.** And the GI50 [17]?
**A.** 19.2 µM (inactive)

**Q.** What about the GI50 [18] of the same compound?
**A.** 22.6 µM (inactive)

**Q.** And the GI50 [19]?
**A.** 12.4 µM (inactive)

**Q.** And the GI50 [20]?
**A.** 29.1 µM (inactive)

**Q.** And the GI50 [21]?
**A.** 31.3 µM (inactive)

**Q.** And the GI50 [22]?
**A.** 20.7 µM (inactive)

**Q.** What about the GI50 [23] of the same compound?
**A.** 8.18 µM (inactive)

**Q.** What about the GI50 [24] of the same compound?
**A.** 4.4 µM (inactive)

**Q.** And the GI50 [25]?
**A.** 19.1 µM (inactive)

**Q.** What about the GI50 [26] of the same compound?
**A.** 24 µM (inactive)

**Q.** What about the GI50 [27] of the same compound?
**A.** 13 µM (inactive)

**Q.** And the GI50 [28]?
**A.** 27.6 µM (inactive)

**Q.** What about the GI50 [29] of the same compound?
**A.** 3.5 µM (inactive)

**Q.** What about the GI50 [30] of the same compound?
**A.** 13 µM

**Q.** What about the GI50 [31] of the same compound?
**A.** 43.5 µM (inactive)

**Q.** What about the GI50 [32] of the same compound?
**A.** 16.9 µM (inactive)

**Q.** And the GI50 [33]?
**A.** 34.7 µM (inactive)

**Q.** What about the GI50 [34] of the same compound?
**A.** 22.2 µM (inactive)

**Q.** And the GI50 [35]?
**A.** 32.2 µM (inactive)

**Q.** What about the GI50 [36] of the same compound?
**A.** 15 µM (inactive)

**Q.** What about the GI50 [37] of the same compound?
**A.** 5.85 µM (inactive)

**Q.** And the GI50 [38]?
**A.** 34.2 µM (inactive)

**Q.** What about the GI50 [39] of the same compound?
**A.** 40.7 µM (inactive)

**Q.** And the GI50 [40]?
**A.** 18.1 µM (inactive)

**Q.** And the GI50 [41]?
**A.** 29.9 µM (inactive)

**Q.** What about the GI50 [42] of the same compound?
**A.** 30.2 µM (inactive)

**Q.** And the GI50 [43]?
**A.** 13.5 µM (inactive)

**Q.** And the GI50 [44]?
**A.** 12.1 µM (inactive)

**Q.** What about the GI50 [45] of the same compound?
**A.** 6.5 µM (inactive)

**Q.** And the GI50 [46]?
**A.** 14.4 µM (inactive)

**Q.** And the GI50 [47]?
**A.** 32.5 µM (inactive)

**Q.** What about the GI50 [48] of the same compound?
**A.** 25.7 µM (inactive)

**Q.** And the GI50 [49]?
**A.** 25.8 µM (inactive)

**Q.** What about the GI50 [50] of the same compound?
**A.** 7.05 µM (inactive)

**Q.** What about the GI50 [51] of the same compound?
**A.** 8.39 µM (inactive)

**Q.** What about the GI50 [52] of the same compound?
**A.** 14.7 µM (inactive)

**Q.** What about the GI50 [53] of the same compound?
**A.** 2.4 µM (inactive)

**Q.** What about the GI50 [54] of the same compound?
**A.** 28.3 µM (inactive)

**Q.** Which results are given for O=C(N/C(=C\c1ccccc1O)c1nc2ccccc2[nH]1)c1ccccc1?
**A.** GI50 [1]: 95.7 µM (inactive); GI50 [2]: > 100 µM (inactive); GI50 [3]: > 100 µM (inactive); GI50 [5]: > 100 µM (inactive); GI50 [6]: 43.5 µM (inactive); GI50 [7]: 23.8 µM (inactive); GI50 [8]: > 100 µM (inactive); GI50 [9]: 74.1 µM (inactive); GI50 [11]: 89.7 µM (inactive); GI50 [12]: > 100 µM (inactive); GI50 [13]: > 100 µM (inactive); GI50 [14]: > 100 µM (inactive); GI50 [15]: > 100 µM (inactive); GI50 [16]: 41.5 µM (inactive); GI50 [17]: > 100 µM (inactive); GI50 [18]: > 100 µM (inactive); GI50 [19]: > 100 µM (inactive); GI50 [20]: > 100 µM (inactive); GI50 [55]: 73.8 µM (inactive); GI50 [22]: > 100 µM (inactive); GI50 [56]: 41.5 µM (inactive); GI50 [23]: 12.8 µM (inactive); GI50 [24]: > 100 µM (inactive); GI50 [25]: 79.6 µM (inactive); GI50 [26]: > 100 µM (inactive); GI50 [27]: > 100 µM (inactive); GI50 [28]: 89.7 µM (inactive); GI50 [30]: > 100 µM; GI50 [31]: > 100 µM (inactive); GI50 [32]: 66.1 µM (inactive); GI50 [33]: > 100 µM (inactive); GI50 [35]: 40.6 µM (inactive); GI50 [36]: 39.7 µM (inactive); GI50 [37]: > 100 µM (inactive); GI50 [38]: 56.6 µM (inactive); GI50 [39]: 36.1 µM (inactive); GI50 [40]: > 100 µM (inactive); GI50 [41]: 63.5 µM (inactive); GI50 [42]: > 100 µM (inactive); GI50 [43]: 42.1 µM (inactive); GI50 [44]: > 100 µM (inactive); GI50 [45]: > 100 µM (inactive); GI50 [46]: > 100 µM (inactive); GI50 [48]: 75.7 µM (inactive); GI50 [49]: > 100 µM (inactive); GI50 [50]: 62.4 µM (inactive); GI50 [57]: 51.2 µM (inactive); GI50 [58]: 48.1 µM (inactive); GI50 [51]: > 100 µM (inactive); GI50 [59]: > 100 µM (inactive); GI50 [52]: 37.3 µM (inactive); GI50 [53]: 45.2 µM (inactive); GI50 [54]: 37.8 µM (inactive)
